“Also recorded” adds a separate entry of the source.
Key:
Assay type in all cases: in vivo, mouse
murine LPS ARDS model [1] = experiment: Body weight and lung weight, murine LPS ARDS model; conditions: for body weight loss: 72-hour study
Method: C57B16/N mice were obtained from Charles River Laboratories (Montreal, Quebec). Male mice, 20-25 g of body weight, were used throughout the studies. Animals were housed in specific pathogen[…]free conditions, and all experiments were approved by Institutional Animal Care and Use Committee (IPST_SL20200402-1). Animal studies are reported in compliance with […] guidelines.
(§1) In the ARDS group, mice received Escherichia coli O111:B4 lipopolysaccharide (50 μg in 0.05 mL saline, i.t.), while, in the control group, the animals received an instillation of saline (0.05 mL, i.t.). For intratracheal instillation, mice were slightly anesthetized with isoflurane.
(§2) The lipid SPPCT-800 was dissolved in water (low dose—2 mg/ml; high dose—20 mg/ml). For the 24-hour study, two treatment approaches were used. Mice received a single dose of SPPCT-800 (200 mg/kg, per gavage) as prevention (30 minutes before the LPS instillation), or as a single dose of either 20 mg/kg or 200 mg/kg as therapy (3-hour after the LPS instillation). For the 72-hour study, mice received a total of 8 treatments of SPPCT-800 (200 mg/kg) starting at 3-hour after the LPS instillation. Disease progression in mice was assessed by the evaluation of pulmonary functions, blood oxygen saturation, and body weight change. On the terminal day of each study (24 hours or 72 hours), measurement of cytokine levels in the plasma and BALF, and histopathology evaluations were done.
(§3) Statistical Analysis. Results are expressed as means±SEM. Comparisons were made on normally distributed data using ANOVA, followed by a Fisher post hoc test to assess the difference between LPS+vehicle group with GraphPad Prism Software version 8.0 (San Diego, CA, USA). Differences were considered statistically significant when P values were less than 0.05. (* Shown difference versus Sham animals and # shown difference versus LPS+Vehicle group. * Means P<0.05, ** P<0.01, *** P<0.001 while # means P<0.05, ##P<0.01 and ###P<0.001).

murine LPS ARDS model [2] = experiment: BALF protein content and cell counts, murine LPS ARDS model
Method: as §1, §2
Differential Cell Counts in BALF. The left lung was clamped while 0.9 mL of cold PBS 1×, Protease Inhibitor 1× (SigmaFast®) solution (3×300 μL) was injected so bronchoalveolar lavage fluid (BALF) from the right lobe of the lungs could be collected. The protein assay was performed according to the manufacturer's instruction BCA Protein Assay (Pierce™-#23227). Briefly, a dilution factor of 5 was used (1 part of BALF: 4 part of PBS 1×). 10 μL, of the diluted sample was added into the microplate wells. 200 μL of the working reagent was added into each well. The plate was covered, incubated at 37° C. for 30 minutes. After a cool-down period, the absorbance at 562 nm was rapidly measured using a monochromatic spectrophotometer (SpectraMAX ® plus—Molecular Devices). The total BALF protein content was reported by multiplying the protein concentration by the dilution factor, and then multiplying by the total of BALF volume collected.
as §3

murine LPS ARDS model [3] = experiment: Arterial blood oxygen saturation (SpO2), murine LPS ARDS model; conditions: 72-hour study; compared to untreated LPS group; did not reach statistical significance
Method: as §1
as §2, with “On the terminal day of each study (24 hours or 72 hours), measurement of cytokine levels in the plasma and BALF, and histopathology evaluations were done.” left out
At 0 hour (baseline), 24-hour post-LPS instillation, and 48 and 72-hour post LPS instillation, arterial blood oxygen saturation (SpO2) was recorded on conscious mice. SpO2 was read off of a pulse oximeter (STARR Life Sciences MouseOx Plus system, Oakmont, PA) with a mouse collar probe installed at the carotid level. The saturation values were measured in percentages (%).
(§4) Statistical Analysis. Results are expressed as means±SEM. […]

murine LPS ARDS model [4] = experiment: Histopathological evaluation (lung injury score), murine LPS ARDS model
Method: as §1, §2
Histopathological Evaluation. […] A blinded histologist evaluated the general morphology of alveolar septa, lung structure, and inflammation according to the general scoring described and adopted by Matute-Bello, et al.^25, 26
as §4

murine LPS ARDS model [5] = experiment: Respiratory functions by whole-body plethysmograph, murine LPS ARDS model; conditions: P<0.001
Method: as §1, §2
Respiratory Functions. All mice were introduced to the plethysmograph chamber environment. After the acclimatization period, the functional respiratory parameters were assessed by the whole-body plethysmograph (VivoFlow, SCIREQ, Montreal, Canada) at 0 hour (baseline), at 24-hour post-LPS instillation, and at 48 and 72-hour post-LPS instillation. Each measurement was performed with the mouse placed alone in an unrestrained whole-body plethysmography (WBP) chamber to measure respiratory functions. The WBP trace allowed us to determine specific information regarding the breathing pattern, and to derive important information associated with the development of inflammation. The functional respiratory parameters analyzed included respiratory rate, PenH (pulmonary congestion index), and inspiratory/expiratory time measurements. PenH, was used as an index of edema, inflammation and congestion (broncho-restriction).^24
as §3

CCCCCCCCCCCCCC(=O)OCC(COP(=O)([O-])OCC(COC(=O)CCC)OC(=O)CCC)OC(=O)CCCCCCCCCCCCC.CCCCCCCCCCCCCC(=O)OCC(COP(=O)([O-])OCC(COC(=O)CCC)OC(=O)CCC)OC(=O)CCCCCCCCCCCCC.[Mg+2] (stereo not drawn) [SPPCT-800]
body weight loss versus LPS (in words) (murine LPS ARDS model [1]; 48 hours and 72 hours after LPS treatment): significantly reduced
wet lung weight/dry lung ratio (murine LPS ARDS model [1]; 72 hours): decreased
lung index (lung weight/body weight×100) (murine LPS ARDS model [1]; 72 hours, P<0.05): reduced; also recorded: significantly decreased
lung weight (murine LPS ARDS model [1]; animals sacrificed at 72 hours, P=0.1100): tended to reduce
body weight loss (murine LPS ARDS model [1]; at 24 hours after LPS): 14%
body weight loss (murine LPS ARDS model [1]; at 48 hours after LPS, P<0.05 vs untreated LPS group): 14%
body weight loss (murine LPS ARDS model [1]; at 72 hours after LPS, P<0.05 vs untreated LPS group): 8%
BALF protein content (murine LPS ARDS model [2]; 24 hours after LPS, single dose given as a preventive, P<0.05): significant reduction
BALF protein levels (murine LPS ARDS model [2]; at 72 hours, multidose treatment): major reductions
BALF neutrophil counts (murine LPS ARDS model [2]; at 72 hours, multidose treatment, P=0.1493, not statistically significant): reductions
BALF total cell count (murine LPS ARDS model [2]; at 72 hours, multidose treatment, P=0.1714, not statistically significant): reductions
SpO2 levels (murine LPS ARDS model [3]): maintained
lung injury score (murine LPS ARDS model [4]; at 24 hours, given 30 minutes prior to LPS as a preventative, P<0.01): 0.3
lung injury score (murine LPS ARDS model [4]; at 72 hours, multi-dose treatment group): 2.2
inspiratory time (murine LPS ARDS model [5]; at 24 hours): Significant reductions
pulmonary congestion index (PenH) (murine LPS ARDS model [5]; at 24 hours): Significant reductions
expiratory time (murine LPS ARDS model [5]; at 48 hours): significant reductions
pulmonary congestion index (PenH) (murine LPS ARDS model [5]; at 48 hours): significant reductions
